*1 amine or outer side, *2 acyl side, *3 side chain or, on linkers, in order; H or OH if unused. Where a SMILES comes first, the peptide text is derived from it. Bridges are numbered along the chain shown (N, C = ends). [ ]: non-standard residue; d: D form. Phe(4-yl) = O=C([C@H](Cc1ccc([*:3])cc1)N[*:1])[*:2]
Assays:
[1] = humans, following i.v. administration; cited from earlier work
[2] = Stability testing in human whole blood; conditions: for stability in whole blood: human whole blood, result in words, relative to unmodified ADH-1
Stability testing in PBS = conditions: result in words, relative to unmodified ADH-1
Aqueous solubility = format: physicochemical; conditions: result in words

Row | Structure (SMILES) | circulating half-life [1] | excreted unchanged in the urine [1] | half-life ([2]; human, whole blood) | stability in PBS (Stability testing in PBS) | stability in whole blood [2] | aqueous solubility (Aqueous solubility)
1 | CC(=O)N[C@H]1CSSC[C@@H](C(N)=O)NC(=O)[C@H](C(C)C)NC(=O)[C@H](C)NC(=O)[C@H](Cc2c[nH]cn2)NC1=O [ADH-1, N-Ac-CHAVC-NH2] | 2.5 h | 30% | ~2 h | – | – | –
2 | CC(=O)N[C@H]1CSC[C@H](O)CSC[C@@H](C(N)=O)NC(=O)[C@H](C(C)C)NC(=O)[C@H](C)NC(=O)[C@H](Cc2c[nH]cn2)NC1=O [ADH-100712-T] | – | – | – | stable | failed to show improved stability | –
3 | CC(=O)NC1CSCC(O)CSCC(C(N)=O)NC(=O)[C@H](C(C)C)NC(=O)[C@H](C)NC(=O)[C@H](Cc2c[nH]cn2)NC1=O (stereo partly drawn) [ADH100713-T, 3R, 6S, 9S, 12S, 15R 15-Acetylamino-19-hydroxy-12-(1H-imidazol-4-ylmethyl)-6-isopropyl-9-methyl-5,8,11,14-tetraoxo-1,17-dithia-4,7,10,13-tetraaza-cycloicosane-3-carboxylic acid amide] | – | – | – | stable | stable | –
4 | CC(=O)N[C@H]1Cc2ccc(cc2)SC[C@@H](C(N)=O)NC(=O)[C@H](C(C)C)NC(=O)[C@H](C)NC(=O)[C@H](Cc2c[nH]cn2)NC1=O [ADH-100716-T, 4R, 7S, 10S, 13S, 16S 16-Acetylamino-13-(1H-imidazol-4-ylmethyl)-7-isopropyl-10-methyl-6,9,12,15-tetraoxo-2-thia-5,8,11,14-tetraaza-bicyclo[16.2.2]docosa 1(21), 18(22), 19-triene-4-carboxylic acid amide] (Ac-[Phe(4-yl)]HAVC-NH2; thioether 1-5) | – | – | – | – | improved blood stability | –
5 | CC(=O)NC1CSCc2ccccc2CSCC(C(N)=O)NC(=O)[C@H](C(C)C)NC(=O)[C@H](C)NC(=O)[C@H](Cc2c[nH]cn2)NC1=O (stereo partly drawn) [ADH100710-T, 8R, 11S, 14S, 17S, 20R 20-Acetylamino-17-(1H-imidazol-4-ylmethyl)-11-isopropyl-14-methyl-10,13,16,19-tetraoxo-5,7,8,10,11,12,13,14,15,16,17,18,19,20,21,23-hexadecahydro-9H-6,22-dithia-9,12,15,18-tetraaza-benzocyclohenicosene-8-carboxylic acid amide] | – | – | – | stable | stable | –
6 | CC(=O)N[C@H]1CSCc2cccc(c2)CSC[C@@H](C(N)=O)NC(=O)[C@H](C(C)C)NC(=O)[C@H](C)NC(=O)[C@H](Cc2c[nH]cn2)NC1=O [ADH100705-T] | – | – | – | much less so | much less so | relatively low
7 | CC(=O)N[C@H]1CSCC(=O)CSC[C@@H](C(N)=O)NC(=O)[C@H](C(C)C)NC(=O)[C@H](C)NC(=O)[C@H](Cc2c[nH]cn2)NC1=O [ADH100706-T] | – | – | – | failed to result in improved stability | failed to result in improved stability | –

— patent US20090131306A1, “CHEMICALLY MODIFIED CYCLIC PEPTIDES CONTAINING CELL ADHESION RECOGNITION (CAR) SEQUENCES AND USES THEREFOR” (ADHEREX TECHNOLOGIES, INC., priority 2007, published 2009)
